In patent US20070128217A1 (priority 2003, published 2007):

Legend:
[1] = system: control sera (pooled serum of ten healthy LUMC hospital workers; commercial negative donor pooled serum from the Dutch bloodbank); format: binding, human; parameters: Binding of Control serum LUMC to linear peptides / Binding of Control serum Blood-bank to linear peptides / Binding of Control serum LUMC to looped peptides / Binding of Control Serum Blood-Bank to Looped peptides / Binding of Control serum LUMC to linear peptides of the protein M of SARS-CoV Urbani / Binding of Control serum Blood-bank to linear peptides of the protein M of SARS-CoV Urbani / Binding of Control serum LUMC to looped peptides of the protein M of SARS-CoV Urbani / Binding of Control Serum Blood-Bank to Looped peptides of the protein M of SARS-CoV Urbani: unit not given here
[2] = system: rabbit serum obtained by immunizing a rabbit with the SARS-CoV strain Frankfurt 1; format: binding; parameters: Binding of a rabbit serum to linear peptides / Binding of a rabbit serum to looped peptides / Rabbit serum linear peptides / Rabbit serum looped peptides / Binding of a rabbit serum to linear peptides of protein N of SARS-CoV Urbani (Rabbit serum linear peptides) / Binding of a rabbit serum to looped/cyclic peptides of protein N of SARS-CoV Urbani (Rabbit serum looped peptides): unit not given here

| Sequence | Rabbit serum linear peptides [2] | Rabbit serum looped peptides [2] | Binding of Control Serum Blood-Bank to Looped peptides [1] | Binding of Control serum Blood-bank to linear peptides [1] | Binding of Control serum LUMC to linear peptides [1] | Binding of Control serum LUMC to looped peptides [1] | Binding of a rabbit serum to linear peptides [2] | Binding of a rabbit serum to looped peptides [2] | other results |
| --- | --- | --- | --- | --- | --- | --- | --- | --- | --- |
| NWVTGGIAIAMACIV | 0.2 | 0.3 | – | – | – | – | – | – | Binding of Control Serum Blood-Bank to Looped peptides of the protein M of SARS-CoV Urbani [1]: 0.6; Binding of Control serum Blood-bank to linear peptides of the protein M of SARS-CoV Urbani [1]: 0.7; Binding of Control serum LUMC to linear peptides of the protein M of SARS-CoV Urbani [1]: 0.8; Binding of Control serum LUMC to looped peptides of the protein M of SARS-CoV Urbani [1]: 0.9 |
| NYDYCIPYNSVTDTI | – | – | 0.6 | 0.6 | 0.6 | 0.7 | 0.1 | 0.5 | – |
| NYFVCWHTHNYDYCI | – | – | 0.6 | 0.6 | 0.6 | 0.6 | 0.1 | 0.5 | – |
| PAMDPIYDEPTTTTS | – | – | 0.5 | 0.4 | 0.4 | 0.4 | 0.1 | 0.4 | – |
| PKLKEDYQIGGYSED | – | – | 0.5 | 0.4 | 0.4 | 0.7 | 0.1 | 0.6 | – |
| PLGRCDIKDLPKEIT | 0.3 | 0.4 | – | – | – | – | – | – | Binding of Control Serum Blood-Bank to Looped peptides of the protein M of SARS-CoV Urbani [1]: 0.9; Binding of Control serum Blood-bank to linear peptides of the protein M of SARS-CoV Urbani [1]: 0.6; Binding of Control serum LUMC to linear peptides of the protein M of SARS-CoV Urbani [1]: 0.4; Binding of Control serum LUMC to looped peptides of the protein M of SARS-CoV Urbani [1]: 0.8 |
| PNVTINCQDPAGGAL | 0.6 | 0.2 | 0.4 | 1.0 | 0.7 | 0.4 | – | – | – |
| PVKIDNASPASTVHA | – | – | 0.7 | 0.7 | 0.5 | 0.9 | 0.1 | 0.4 | – |
| QECVRGTTVLLKEPC | 0.6 | 0.5 | 0.9 | 0.9 | 1.0 | 0.8 | – | – | – |
| QHQNSKKTTKLVVIL | – | – | 0.6 | 0.5 | 0.6 | 0.5 | – | – | Recognition of the peptide by the rabbit serum [2]: recognized |
| QLFKPLTKKNYSELD | 0.3 | 0.3 | – | – | – | – | – | – | Binding of Control Serum Blood-Bank to Looped peptides of the protein X3 of SARS-CoV Urbani [1]: 0.8; Binding of Control serum Blood-bank to linear peptides of the protein X3 of SARS-CoV Urbani [1]: 0.8; Binding of Control serum LUMC to linear peptides of the protein X3 of SARS-CoV Urbani [1]: 0.8; Binding of Control serum LUMC to looped peptides of the protein X3 of SARS-CoV Urbani [1]: 0.8 |
| QNSKKTTKLVVILRI | – | – | 0.7 | 0.5 | 0.8 | 0.7 | – | – | Recognition of the peptide by the rabbit serum [2]: recognized |
| QPVKIDNASPASTVH | – | – | 0.6 | 0.6 | 0.6 | 0.6 | 0.1 | 0.4 | – |
| RFFTLGSITAQPVKI | – | – | 0.8 | 1.0 | 1.1 | 0.7 | 1.7 | 0.5 | – |
| RGTTVLLKEPCPSGT | 0.4 | 0.5 | 0.9 | 0.9 | 0.8 | 0.8 | – | – | – |
| RMAGHPLGRCDIKDL | 0.1 | 0.6 | – | – | – | – | – | – | Binding of Control Serum Blood-Bank to Looped peptides of the protein M of SARS-CoV Urbani [1]: 0.9; Binding of Control serum Blood-bank to linear peptides of the protein M of SARS-CoV Urbani [1]: 0.7; Binding of Control serum LUMC to linear peptides of the protein M of SARS-CoV Urbani [1]: 0.7; Binding of Control serum LUMC to looped peptides of the protein M of SARS-CoV Urbani [1]: 0.8 |
| RTFRIAIWNLDVIIS | 0.3 | 0.4 | – | – | – | – | – | – | Binding of Control Serum Blood-Bank to Looped peptides of the protein X3 of SARS-CoV Urbani [1]: 0.9; Binding of Control serum Blood-bank to linear peptides of the protein X3 of SARS-CoV Urbani [1]: 0.7; Binding of Control serum LUMC to linear peptides of the protein X3 of SARS-CoV Urbani [1]: 0.6; Binding of Control serum LUMC to looped peptides of the protein X3 of SARS-CoV Urbani [1]: 0.8 |
| RWHTMVQTCTPNVTI | 0.5 | 0.6 | 0.9 | 0.9 | 0.6 | 0.9 | – | – | – |
| SEDRHSGVKDYVVVH | – | – | 0.5 | 1.0 | 0.8 | 0.5 | 0.1 | 0.4 | – |
